Data as given in patent publication US6737383B1, “Herbicidal oxadiazolidines” (priority 1999, dated 2004).

Legend:
wheat = test: Test B pre/postemergence wheat; assay type: in vivo, Triticum aestivum; settings: for Wheat plant response rating: scale of 0 to 10 where 0 is no effect and 10 is complete control
How it was run: (§1)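 Response is a visual 0-to-10 score relative to untreated plants, where 0 means no effect and 10 means complete control, taken twelve to sixteen days after application. Treatments went onto soil at planting and onto foliage of 1- to 4-leaf plants, using a surfactant-containing non-phytotoxic solvent.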

cocklebur = test: Test B pre/postemergence cocklebur; assay type: in vivo, Xanthium strumarium; settings: for Cocklebur plant response rating: scale of 0 to 10 where 0 is no effect and 10 is complete control
How it was run: as §1

sugar beet = test: Test B pre/postemergence sugar beet; assay type: in vivo, Beta vulgaris; settings: for Sugarbeets plant response rating: scale of 0 to 10 where 0 is no effect and 10 is complete control
How it was run: as §1

blackgrass = test: Test B pre/postemergence blackgrass; assay type: in vivo, Alopecurus myosuroides; settings: for Blackgrass plant response rating: scale of 0 to 10 where 0 is no effect and 10 is complete control
How it was run: as §1

rice = test: Test B flood test rice; assay type: in vivo, Oryza sativa
How it was run: (§2)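 Each value is a visual injury score relative to controls, with 10 meaning complete control and 0 no effect. Evaluation took place twelve to sixteen days after the 2-leaf-stage plants were treated and kept in the greenhouse.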

smallflower flatsedge = test: Test B flood test smallflower flatsedge; assay type: in vivo, Cyperus difformis
How it was run: as §2

surinam grass = test: Test B pre/postemergence surinam grass; assay type: in vivo, Brachiaria decumbens; settings: for B. signalgrass plant response rating: scale of 0 to 10 where 0 is no effect and 10 is complete control
How it was run: as §1

bedstraw = test: Test B pre/postemergence bedstraw; assay type: in vivo, Galium aparine; settings: Postemergence
How it was run: as §1

crabgrass = test: Test B pre/postemergence crabgrass; assay type: in vivo, Digitaria sanguinalis; settings: for Crabgrass plant response rating: scale of 0 to 10 where 0 is no effect and 10 is complete control
How it was run: as §1

purple nutsedge = test: Test B pre/postemergence purple nutsedge; assay type: in vivo, Cyperus rotundus; settings: for Nutsedge plant response rating: scale of 0 to 10 where 0 is no effect and 10 is complete control
How it was run: as §1

rape = test: Test B pre/postemergence rape; assay type: in vivo, Brassica napus; settings: for Rape plant response rating: scale of 0 to 10 where 0 is no effect and 10 is complete control
How it was run: as §1

duck salad = test: Test B flood test duck salad; assay type: in vivo, Heteranthera limosa
How it was run: as §2

soybean = test: Test B pre/postemergence soybean; assay type: in vivo, Glycine max; settings: for Soybean plant response rating: scale of 0 to 10 where 0 is no effect and 10 is complete control
How it was run: as §1

corn = test: Test B pre/postemergence corn; assay type: in vivo, Zea mays; settings: for Corn plant response rating: scale of 0 to 10 where 0 is no effect and 10 is complete control
How it was run: as §1

wild oat = test: Test B pre/postemergence wild oat; assay type: in vivo, Avena fatua; settings: for Wild oats plant response rating: scale of 0 to 10 where 0 is no effect and 10 is complete control
How it was run: as §1

bamyardgrass = test: Test B flood test barnyardgrass; assay type: in vivo, Echinochloa crus-galli
How it was run: as §2

velvetleaf = test: Test B pre/postemergence velvetleaf; assay type: in vivo, Abutilon theophrasti; settings: for Velvetleaf plant response rating: scale of 0 to 10 where 0 is no effect and 10 is complete control
How it was run: as §1

[1] = Postemergence, Rate 125 g/ha, scale 0 to 10, 0 is no effect, 10 is complete control
[2] = Postemergence, Rate 250 g/ha, scale 0 to 10, 0 is no effect, 10 is complete control
[3] = Preemergence, Rate 62 g/ha, scale 0 to 10 (0 no effect, 10 complete control)
[4] = Rate 500 g/ha, Postemergence, scale 0 to 10, 0 no effect, 10 complete control
[5] = Postemergence (flood test), Rate 125 g/ha, scale 0 to 10, 0 is no effect, 10 is complete control
[6] = Rate 62 g/ha, Postemergence (flood test species), scale of 0 to 10 where 0 is no effect and 10 is complete control
[7] = Rate 500 g/ha, listed under Postemergence (flood test species), scale 0 to 10, 0 no effect, 10 complete control
[8] = flood test species, listed under Postemergence, Rate 250 g/ha, scale 0 to 10, 0 is no effect, 10 is complete control

SMILES: CC(C)N(C(=O)n1oc(=O)n(C2(C)CC2)c1=O)c1ccccc1 [Compound 360]
- Plant response rating, Wheat (wheat; [1]): 4
- Plant response rating, Wheat (wheat; [2]): 4
- Plant response rating, Wheat (wheat; [3]): 3
- Wheat plant response rating (0 to 10 scale) (wheat; Preemergence, Rate 125 g/ha): 6
- Wheat plant response rating (wheat; Preemergence, Rate 250 g/ha): 7
- Wheat plant response rating (wheat; Preemergence, Rate 500 g/ha): 8
- Wheat plant response rating (wheat; Rate 62 g/ha, Postemergence): 3
- Plant response rating, Wheat (wheat; [4]): 6
- Plant response rating, Cocklebur (cocklebur; [1]): 0
- Plant response rating, Cocklebur (cocklebur; [2]): 0
- Plant response rating, Cocklebur (cocklebur; [3]): 0
- Cocklebur plant response rating (0 to 10 scale) (cocklebur; Preemergence, Rate 125 g/ha): 0
- Cocklebur plant response rating (cocklebur; Preemergence, Rate 500 g/ha): 0
- Cocklebur plant response rating (cocklebur; Rate 62 g/ha, Postemergence): 0
- Plant response rating, Cocklebur (cocklebur; [4]): 0
- Plant response rating, Sugarbeets (sugar beet; [1]): 0
- Plant response rating, Sugarbeets (sugar beet; [2]): 2
- Plant response rating, Sugarbeets (sugar beet; [3]): 2
- Sugarbeets plant response rating (0 to 10 scale) (sugar beet; Preemergence, Rate 125 g/ha): 6
- Sugarbeets plant response rating (sugar beet; Preemergence, Rate 250 g/ha): 6
- Sugarbeets plant response rating (sugar beet; Preemergence, Rate 500 g/ha): 7
- Sugarbeets plant response rating (sugar beet; Rate 62 g/ha, Postemergence): 0
- Plant response rating, Sugarbeets (sugar beet; [4]): 7
- Plant response rating, Blackgrass (blackgrass; [1]): 5
- Plant response rating, Blackgrass (blackgrass; [2]): 6
- Plant response rating, Blackgrass (blackgrass; [3]): 9
- Blackgrass plant response rating (0 to 10 scale) (blackgrass; Preemergence, Rate 125 g/ha): 9
- Blackgrass plant response rating (blackgrass; Preemergence, Rate 250 g/ha): 9
- Blackgrass plant response rating (blackgrass; Preemergence, Rate 500 g/ha): 10
- Blackgrass plant response rating (blackgrass; Rate 62 g/ha, Postemergence): 5
- Plant response rating, Blackgrass (blackgrass; [4]): 7
- Plant response rating, Rice (rice; [5]): 0
- Rice plant response rating (rice; [6]): 0
- Plant response rating, Rice (rice; [7]): 3
- Plant response rating, Rice (rice; [8]): 3
- Plant response rating, S. Flatsedge (smallflower flatsedge; [5]): 4
- S. Flatsedge plant response rating (smallflower flatsedge; [6]): 2
- Plant response rating, S. Flatsedge (smallflower flatsedge; [7]): 8
- Plant response rating, S. Flatsedge (smallflower flatsedge; [8]): 4
- Plant response rating, B. signalgrass (surinam grass; [1]): 0
- Plant response rating, B. signalgrass (surinam grass; [2]): 5
- Plant response rating, B. signalgrass (surinam grass; [3]): 5
- B. signalgrass plant response rating (0 to 10 scale, 0 is no effect, 10 is complete control) (surinam grass; Preemergence, Rate 125 g/ha): 6
- B. signalgrass plant response rating (surinam grass; Preemergence, Rate 250 g/ha): 7
- B. signalgrass plant response rating (surinam grass; Preemergence, Rate 500 g/ha): 7
- B. signalgrass plant response rating (surinam grass; Rate 62 g/ha, Postemergence): 0
- Plant response rating, B. signalgrass (surinam grass; [4]): 7
- Plant response rating, Bedstraw (bedstraw; Rate 125 g/ha, scale 0 to 10, 0 is no effect, 10 is complete control): 0
- Plant response rating, Bedstraw (bedstraw; Rate 250 g/ha, scale 0 to 10, 0 is no effect, 10 is complete control): 2
- Bedstraw plant response rating (bedstraw; Rate 62 g/ha, scale of 0 to 10 where 0 is no effect and 10 is complete control): 0
- Plant response rating, Bedstraw (bedstraw; Rate 500 g/ha, scale 0 to 10, 0 no effect, 10 complete control): 4
- Plant response rating, Crabgrass (crabgrass; [1]): 2
- Plant response rating, Crabgrass (crabgrass; [2]): 5
- Plant response rating, Crabgrass (crabgrass; [3]): 9
- Crabgrass plant response rating (0 to 10 scale) (crabgrass; Preemergence, Rate 125 g/ha): 10
- Crabgrass plant response rating (crabgrass; Preemergence, Rate 250 g/ha): 10
- Crabgrass plant response rating (crabgrass; Preemergence, Rate 500 g/ha): 10
- Crabgrass plant response rating (crabgrass; Rate 62 g/ha, Postemergence): 2
- Plant response rating, Crabgrass (crabgrass; [4]): 5
- Plant response rating, Nutsedge (purple nutsedge; [1]): 0
- Plant response rating, Nutsedge (purple nutsedge; [2]): 2
- Plant response rating, Nutsedge (purple nutsedge; [3]): 0
- Nutsedge plant response rating (0 to 10 scale) (purple nutsedge; Preemergence, Rate 125 g/ha): 0
- Nutsedge plant response rating (purple nutsedge; Preemergence, Rate 250 g/ha): 0
- Nutsedge plant response rating (purple nutsedge; Preemergence, Rate 500 g/ha): 7
- Nutsedge plant response rating (purple nutsedge; Rate 62 g/ha, Postemergence): 0
- Plant response rating, Nutsedge (purple nutsedge; [4]): 4
- Plant response rating, Rape (rape; [1]): 0
- Plant response rating, Rape (rape; [2]): 0
- Plant response rating, Rape (rape; [3]): 0
- Rape plant response rating (0 to 10 scale) (rape; Preemergence, Rate 125 g/ha): 0
- Rape plant response rating (rape; Preemergence, Rate 250 g/ha): 0
- Rape plant response rating (rape; Preemergence, Rate 500 g/ha): 0
- Rape plant response rating (rape; Rate 62 g/ha, Postemergence): 0
- Plant response rating, Rape (rape; [4]): 0
- Plant response rating, Ducksalad (duck salad; [5]): 0
- Ducksalad plant response rating (duck salad; [6]): 0
- Plant response rating, Ducksalad (duck salad; [7]): 0
- Plant response rating, Ducksalad (duck salad; [8]): 0
- Plant response rating, Soybean (soybean; [1]): 2
- Plant response rating, Soybean (soybean; [2]): 2
- Plant response rating, Soybean (soybean; [3]): 0
- Soybean plant response rating (0 to 10 scale) (soybean; Preemergence, Rate 125 g/ha): 0
- Soybean plant response rating (soybean; Preemergence, Rate 250 g/ha): 0
- Soybean plant response rating (soybean; Preemergence, Rate 500 g/ha): 5
- Soybean plant response rating (soybean; Rate 62 g/ha, Postemergence): 1
- Plant response rating, Soybean (soybean; [4]): 3
- Plant response rating, Corn (corn; [1]): 2
- Plant response rating, Corn (corn; [2]): 6
- Plant response rating, Corn (corn; [3]): 0
- Corn plant response rating (0 to 10 scale) (corn; Preemergence, Rate 125 g/ha): 3
- Corn plant response rating (corn; Preemergence, Rate 250 g/ha): 4
- Corn plant response rating (corn; Preemergence, Rate 500 g/ha): 9
- Corn plant response rating (corn; Rate 62 g/ha, Postemergence): 2
- Plant response rating, Corn (corn; [4]): 7
- Plant response rating, Wild oats (wild oat; [1]): 3
- Plant response rating, Wild oats (wild oat; [2]): 3
- Plant response rating, Wild oats (wild oat; [3]): 3
- Wild oats plant response rating (0 to 10 scale) (wild oat; Preemergence, Rate 125 g/ha): 10
- Wild oats plant response rating (wild oat; Preemergence, Rate 250 g/ha): 10
- Wild oats plant response rating (wild oat; Preemergence, Rate 500 g/ha): 10
- Wild oats plant response rating (wild oat; Rate 62 g/ha, Postemergence): 3
- Plant response rating, Wild oats (wild oat; [4]): 5
- Plant response rating, Barnyardgrass (bamyardgrass; [5]): 2
- Barnyardgrass plant response rating (bamyardgrass; [6]): 2
- Plant response rating, Barnyardgrass (bamyardgrass; [7]): 7
- Plant response rating, Barnyardgrass (bamyardgrass; [8]): 6
- Plant response rating, Velvetleaf (velvetleaf; [1]): 0
- Plant response rating, Velvetleaf (velvetleaf; [2]): 0
- Plant response rating, Velvetleaf (velvetleaf; [3]): 3
- Velvetleaf plant response rating (0 to 10 scale) (velvetleaf; Preemergence, Rate 125 g/ha): 6
- Velvetleaf plant response rating (velvetleaf; Preemergence, Rate 250 g/ha): 7
- Velvetleaf plant response rating (velvetleaf; Preemergence, Rate 500 g/ha): 7
- Velvetleaf plant response rating (velvetleaf; Rate 62 g/ha, Postemergence): 0
- Plant response rating, Velvetleaf (velvetleaf; [4]): 4
